29 compounds from patent US9573887B2, “Naphthalene derivative” (Daito Chemix Corporation, priority 2010, dated 2017) can be followed below.

Counter-ions that a name gives are not always drawn.

For one assay, the target named is T1, Mouse VCP (Mus musculus, UniProt Q01853).
T1 construct: histidine tag (N); made in house; host or cells: Sf-9 insect cells (baculovirus vector pVL1392)
T1 sequence (Q01853 whole entry): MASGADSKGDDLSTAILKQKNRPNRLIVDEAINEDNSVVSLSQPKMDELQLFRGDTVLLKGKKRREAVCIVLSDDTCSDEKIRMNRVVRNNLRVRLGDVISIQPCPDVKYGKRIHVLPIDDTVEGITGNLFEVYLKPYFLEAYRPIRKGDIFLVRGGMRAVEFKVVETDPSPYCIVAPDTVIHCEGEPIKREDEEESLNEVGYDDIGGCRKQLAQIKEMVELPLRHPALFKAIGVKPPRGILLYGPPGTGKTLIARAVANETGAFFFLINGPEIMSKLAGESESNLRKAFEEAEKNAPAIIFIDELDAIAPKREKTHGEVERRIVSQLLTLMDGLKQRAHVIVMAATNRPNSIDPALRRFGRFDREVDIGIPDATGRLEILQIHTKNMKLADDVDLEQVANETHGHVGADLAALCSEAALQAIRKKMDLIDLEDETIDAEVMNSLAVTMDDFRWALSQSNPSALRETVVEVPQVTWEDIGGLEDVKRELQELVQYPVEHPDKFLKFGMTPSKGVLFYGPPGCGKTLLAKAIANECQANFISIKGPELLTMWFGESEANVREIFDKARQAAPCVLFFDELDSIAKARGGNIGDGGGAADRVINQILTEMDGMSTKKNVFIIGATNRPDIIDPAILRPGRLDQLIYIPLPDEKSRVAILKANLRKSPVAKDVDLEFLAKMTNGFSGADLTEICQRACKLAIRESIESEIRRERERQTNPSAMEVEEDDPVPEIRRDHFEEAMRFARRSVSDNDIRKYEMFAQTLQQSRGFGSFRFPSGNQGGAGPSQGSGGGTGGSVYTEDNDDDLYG
Description: ATPase activity of purified His-tagged VCP, [γ-32P]ATP, liberated phosphate by liquid scintillation. The settings on record: compounds of Comparative Examples; determined in the same manner as the Examples. Type of assay: biochemical. Here is the method:
In one aspect, the effect of VCP regulators for regulating ATPase activity is determined, for example by the following exemplary assay. Mouse VCP cDNA (the amino acid sequence is completely identical among mouse, rat and human) is added with a DNA sequence corresponding to a histidine tag at the amino-terminal, subcloned into a baculovirus vector pVL1392 (BD Bioscience), and expressed in Sf-9 insect cells. The protein is purified with a nickel column. After the purification the concentration of the protein is adjusted to 0.25-0.5 μg/ml and the protein is stored in a solution containing 50 mM TrisCl pH 8.0, 5 mM EDTA, 10% glycerol, and 15 mM DTT at 4° C. 500 ng of the purified VCP is mixed with 100 μM [γ-^32P]ATP (18.5 GBq/mmol) and the test substance in 20 μL of ATPase buffer (20 mM HEPES (pH7.4), 50 mM KCl, 5 mM MgCl2, 15 mM DTT), and incubated at 37° C. for 10 minutes. The enzyme reaction is stopped with addition of 200 μL of an ice-cold solution containing 7% TCA and 1 mM K2HPO4. 50μ of a solution containing 3.75% ammonium molybdate and 0.02M tungstate silicic/3 N H2SO4 is added, followed by 300 μL of n-butylacetic acid, and then the liberated phosphate is extracted into the organic layer. The reaction tube is centrifuged for 5 minutes at 20,000 g to separate the aqueous layer and the organic layer, 200 μL of the organic layer is taken, and the beta ray radiated from the liberated phosphate is quantified with liquid scintillation counter. By measuring the ATPase activity in the presence of the test substance at various concentrations, ATPase inhibitory activity of the test substance is measured.
Mouse VCP cDNA was added with a DNA sequence corresponding to histidine tag at the amino-terminal, subcloned into a baculovirus vector pVL1392 (BD Bioscience), and expressed in Sf-9 insect cells. The protein was purified with a nickel column (GE Healthcare). The concentration of the protein was adjusted to 0.25-0.5 μg/ml and the protein was stored in a solution containing 50 mM TrisCl pH 8.0, 5 mM EDTA, 10% glycerol, and 15 mM DTT.
The ATPase activity was determined as follows. 500 ng of the purified VCP was mixed with 100 μM [γ-32P]ATP (18.5 GBq/mmol) and the test substance in 20 μL of ATPase buffer (20 mM HEPES (pH7.4), 50 mM KCl, 5 mM MgCl2, 15 mM DTT), and incubated at 37° C. for 10 minutes.
The enzyme reaction was stopped with addition of 200 μL of an ice-cold solution containing 7% TCA and 1 mM K2HPO4. 50μ of a solution containing 3.75% ammonium molybdate and 0.02M tungstate silicic/3 NH2SO4 was added, followed by 300 μL of n-butylacetic acid, and then the liberated phosphate was extracted into the organic layer. The reaction tube was centrifuged for 5 minutes at 20,000 g to separate the aqueous layer and the organic layer, 200 μL of the organic layer was taken, and the beta ray radiated from the liberated phosphate was quantified with liquid scintillation counter.
By measuring the ATPase activity in the presence of the test substance at various concentrations, ATPase inhibitory activity of the test substance was measured. IC50 of the each test substance was calculated by applying the measured values to the equation below using GraphPad Prism (GraphPad Software).
For the compound `Nc1c(-c2ccccc2)cc(S(=O)(=O)O)c2ccccc12` [Example 26, sodium salt], the 50% inhibitory concentration (IC50) was > 10000 nM.

The same assay, now with this note: compounds of Examples; ATPase inhibitory activity; 500 ng VCP, 100 μM ATP, 37° C., 10 minutes.
As to `Nc1c(/N=N/c2ccc(Cl)cc2Br)cc(S(=O)(=O)O)c2ccccc12` [Example 117, 4-amino-3-(2-bromo-4-chlorophenylazo)naphthalene-1-sulfonic acid sodium salt], the IC50 was determined as 230 nM.

Take `Nc1c(/N=N/c2ccccc2Br)cc(S(=O)(=O)O)c2ccccc12` [Example 108, 4-amino-3-(2-bromophenylazo)naphthalene-1-sulfonic acid sodium salt]: the IC50 worked out at 288 nM.

With `Cc1cc(/N=N/c2cc(S(=O)(=O)O)c3ccccc3c2N)cnc1-c1ccccc1-c1ccccc1` [Example 86, 4-amino-3-(6-biphenyl-2-yl-5-methylpyridine-3-ylazo)naphthalene-1-sulfonic acid sodium salt], the IC50 came out at 552 nM.

As to `Nc1c(/N=N/c2ccccc2OCc2cccnc2)cc(S(=O)(=O)O)c2ccccc12` [Example 142, 4-amino-3-[2-(pyridine-3-ylmethoxy)phenylazo]naphthalene-1-sulfonic acid sodium salt], the IC50 was 243 nM.

Consider `CC(C)(C)OC(=O)NCCCOc1ccccc1-c1ccc(/N=N/c2cc(S(=O)(=O)O)c3ccccc3c2N)cn1` [Example 68, 4-amino-3-{6-[2-(3-tert-butoxycarbonylaminopropoxy)phenyl]pyridine-3-ylazo}naphthalene-1-sulfonic acid sodium salt], for which the IC50 came out at 201 nM.

`CCCCOc1c(C=O)cc(C)cc1-c1ccc(/N=N/c2cc(S(=O)(=O)O)c3ccccc3c2N)cn1` [Example 92, 4-amino-3-[6-(3-formyl-2-butoxy-5-methylphenyl)pyridine-3-ylazo]naphthalene-1-sulfonic acid sodium salt]: the half-inhibitory concentration (IC50) came to 161 nM.

As for `CC(=O)c1cccc(-c2ccc(/N=N/c3cc(S(=O)(=O)O)c4ccccc4c3N)cn2)c1` [Example 15, 3-[6-(3-acetylphenyl)pyridine-3-ylazo]-4-aminonaphthalene-1-sulfonic acid sodium salt], the concentration for half-maximal inhibition (IC50) worked out at 189 nM.

Turning to `Nc1c(/N=N/c2cccc(Cl)c2)cc(S(=O)(=O)O)c2ccccc12` [Example 99, 4-amino-3-(3-chlorophenylazo)naphthalene-1-sulfonic acid sodium salt], the 50% inhibitory concentration (IC50) came to 1390 nM.

Consider `Nc1c(/N=N/c2ccc(NC(=O)c3cccs3)cc2)cc(S(=O)(=O)O)c2ccccc12` [Example 97, 4-amino-3-[4-[(2-thienylcarbonyl)amino]phenylazo]-1-naphthalenesulfonic acid sodium salt], for which the IC50 worked out at 804 nM.

As for `Nc1c(/N=N/c2ccc(-c3cccnc3)nc2-c2cccnc2)cc(S(=O)(=O)O)c2ccccc12` [Example 54, 4-amino-3-([3,2′;6′,3″]terpyridine-3′-ylazo)naphthalene-1-sulfonic acid sodium salt], the concentration for half-maximal inhibition (IC50) worked out at 1060 nM.

Take `N#Cc1cccc(/N=N/c2cc(S(=O)(=O)O)c3ccccc3c2N)c1` [Example 106, 4-amino-3-(3-cyanophenylazo)naphthalene-1-sulfonic acid sodium salt]: the IC50 amounted to 2260 nM.

For `Nc1c(/N=N/c2ccc(-c3ccc(Cl)cc3Cl)nc2)cc(S(=O)(=O)O)c2ccccc12` [Example 19, 4-amino-3-[6-(2,4-dichlorophenyl)pyridine-3-ylazo]naphthalene-1-sulfonic acid sodium salt], the IC50 turned out to be 178 nM.

As to `Nc1c(/N=N/c2ccc(-c3cccnc3)nc2)cc(S(=O)(=O)O)c2ccccc12` [Example 52, 4-amino-3-([2,3′]bipyridinyl-5-ylazo)naphthalene-1-sulfonic acid sodium salt], the 50% inhibitory concentration (IC50) is 1390 nM.

Regarding `Cc1cccc(-c2ccc(/N=N/c3cc(S(=O)(=O)O)c4ccccc4c3N)cn2)c1` [Example 9, 4-amino-3-(6-m-tolylpyridine-3-ylazo)naphthalene-1-sulfonic acid sodium salt], the half-maximal inhibitory concentration (IC50) was found to be 188 nM.

On to `Nc1c(/N=N/c2ccc(-c3cccc(CN4CCOCC4)c3)nc2)cc(S(=O)(=O)O)c2ccccc12` [Example 11, 4-amino-3-[6-(3-morpholine-4-ylmethylphenyl)pyridine-3-ylazo]naphthalene-1-sulfonic acid sodium salt], for which the 50% inhibitory concentration (IC50) is 426 nM.

`CC(C)Oc1ccc(-c2ccc(/N=N/c3cc(S(=O)(=O)O)c4ccccc4c3N)cn2)cc1` [Example 28, 4-amino-3-[6-(4-isopropoxyphenyl)pyridine-3-ylazo]naphthalene-1-sulfonic acid sodium salt]: the 50% inhibitory concentration (IC50) stood at 416 nM.

Consider `Nc1c(/N=N/c2cccnc2)cc(S(=O)(=O)O)c2ccccc12` [Example 1, 4-amino-3-(pyridine-3-ylazo)naphthalene-1-sulfonic acid sodium salt], for which the half-inhibitory concentration (IC50) came to 1580 nM.

Turning to `CCCCc1ccc(-c2ccc(/N=N/c3cc(S(=O)(=O)O)c4ccccc4c3N)cn2)cc1` [Example 62, 4-amino-3-[6-(4-butylphenyl)pyridine-3-ylazo]naphthalene-1-sulfonic acid sodium salt], the IC50 was found to be 856 nM.

For `Nc1c(/N=N/c2ccc(Cl)cc2)cc(S(=O)(=O)O)c2ccccc12` [Example 100, 4-amino-3-(4-chlorophenylazo)naphthalene-1-sulfonic acid sodium salt], the IC50 is 408 nM.

Consider `Nc1c(/N=N/c2ccc(-c3ccccc3OCCCNC(=O)c3ccnc(Cl)c3)nc2)cc(S(=O)(=O)O)c2ccccc12` [Example 77, 4-amino-3-[6-(2-{3-[(2-chloropyridine-4-carbonyl)amino]propoxy}phenyl)pyridine-3-ylazo]naphthalene-1-sulfonic acid sodium salt], for which the half-inhibitory concentration (IC50) came to 366 nM.

For the compound `Nc1c(/N=N/c2ccc(-c3cccc4c3sc3ccccc34)nc2)cc(S(=O)(=O)O)c2ccccc12` [Example 43, 4-amino-3-(6-dibenzothiophene-4-ylpyridine-3-ylazo)naphthalene-1-sulfonic acid potassium salt], the IC50 was determined as 1040 nM.

With `Cc1cccc(-c2ccc(/N=N/c3cc(S(=O)(=O)O)c4ccccc4c3N)cn2)c1C` [Example 33, 4-amino-3-[6-(2,3-dimethylphenyl)pyridine-3-ylazo]naphthalene-1-sulfonic acid sodium salt], the half-inhibitory concentration (IC50) is 301 nM.

On to `COC(=O)CCC(=O)c1ccc(-c2ccc(/N=N/c3cc(S(=O)(=O)O)c4ccccc4c3N)cn2)cc1` [Example 40, methyl 4-{4-[5-(1-amino-4-sulfonaphthalene-2-ylazo)pyridine-2-yl]phenyl}-4-oxobutyrate sodium salt], for which the concentration for half-maximal inhibition (IC50) worked out at 328 nM.

`Nc1c(/N=N/c2ccccc2OCc2ccccn2)cc(S(=O)(=O)O)c2ccccc12` [Example 140, 4-amino-3-[2-(pyridine-2-ylmethoxy)phenylazo]naphthalene-1-sulfonic acid sodium salt]: the IC50 came out at 596 nM.

Consider `CC(C)Oc1ccccc1-c1ccc(/N=N/c2cc(S(=O)(=O)O)c3ccccc3c2N)cn1` [Example 27, 4-amino-3-[6-(2-isopropoxyphenyl)pyridine-3-ylazo]naphthalene-1-sulfonic acid sodium salt], for which the IC50 was found to be 145 nM.

On to `N#C/C(=C\c1ccc(/N=N/c2cc(S(=O)(=O)O)c3ccccc3c2N)cc1)c1ccccc1` [Example 143, 4-amino-3-[4-(2-cyano-2-phenylvinyl)phenylazo]naphthalene-1-sulfonic acid sodium salt], for which the half-maximal inhibitory concentration (IC50) was 1220 nM.

Regarding `Nc1c(/N=N/c2ccc(F)cc2Cl)cc(S(=O)(=O)O)c2ccccc12` [Example 119, 4-amino-3-(2-chloro-4-fluorophenylazo)naphthalene-1-sulfonic acid sodium salt], the half-inhibitory concentration (IC50) stood at 737 nM.

With `CCOc1ccncc1/N=N/c1cc(S(=O)(=O)O)c2ccccc2c1N` [Example 13, 4-amino-3-(4-ethoxypyridine-3-ylazo)naphthalene-1-sulfonic acid sodium salt], the IC50 was 26600 nM.
